The text below walks through data of patent publication US20100240686A1, “CHEMICAL COMPOUNDS” (priority 2006, published 2010).

This assay concerns the target T1, CDK2/Cyclin E (Homo sapiens, UniProt P24941).
T1 construct: The open reading frames of CDK2 and Cyclin E were isolated by reverse transcriptase-PCR; made in house; host or cells: Spodoptera frugiperda SF21 insect cells (baculovirus co-infection, pVL1393)
Description: in vitro kinase assay, Scintillation Proximity Assay (incorporation of [γ-33-P]-ATP into GST-Rb). The assay is classed as biochemical. The following applies: CDK2/Cyclin E partially-purified enzyme, GST-Rb substrate, 0.2 μM ATP, room temperature 60 minutes; read-out: CDK2 inhibitory activity IC50. Here is the method: The compounds were tested in an in vitro kinase assay in 96 well format using Scintillation Proximity Assay (SPA—obtained from Amersham) for measuring incorporation of [γ-33-P]-Adenosine Triphosphate into a test substrate (GST-Retinoblastoma protein; GST-Rb). In each well was placed the compound to be tested (diluted in DMSO and water to correct concentrations) and in control wells either roscovitine as an inhibitor control or DMSO as a […] control.
Approximately 0.2 μl of CDK2/Cyclin E partially-purified enzyme (amount dependent on enzyme activity) diluted in 25 μl incubation buffer was added to each well then 20 μl of GST-Rb/ATP/ATP33 mixture (containing 0.5 μg GST-Rb and 0.2 μM ATP and 0.14 μCi [γ-33-P]-Adenosine Triphosphate in incubation buffer), and the resulting mixture shaken gently, then incubated at room temperature for 60 minutes. […]
The plates were sealed with Topseal-S plate sealers, left for two hours then spun at 2500 rpm, 1124×g., for 5 minutes. The plates were read on a Topcount for 30 seconds per well. […]
The open reading frames of CDK2 and Cyclin E were isolated by reverse transcriptase-PCR using HeLa cell and activated T cell mRNA as a template and cloned into the insect expression vector pVL1393 (obtained from Invitrogen 1995 catalogue number: V1392-20). […]

pIC50: −log10 of the molar value.

By pIC50 is commonly meant the negative decadic logarithm of the IC50, by convention in mol/L. `Cc1ncc(-c2ccnc(Nc3ccc(C(=O)NCCN(C)C)c(F)c3)n2)n1C(C)C` [Example 2, N-(2-Dimethylaminoethyl)-2-fluoro-4-[[4-(2-methyl-3-propan-2-yl-imidazol-4-yl)pyrimidin-2-yl]amino]benzamide]: the pIC50 was 8.52.
